In one data set the test system is RAW 264.7 macrophages. Kind of data set: MTT cell viability of LPS activated RAW 264.7 macrophages. The data set is classed as cell-based, mouse. The settings on record: 10 μM, 24 h. The protocol:
FIG. 16: Cytotoxicity of Platin-A (10 μM), cisplatin (10 μM), aspirin (10 μM), and cisplatin (10 μM)+aspirin (10 μM) on LPS activated RAW 264.7 macrophages with incubation time of 24 h.
The cytotoxic behaviors of cisplatin, aspirin, cisplatin+aspirin, and Platin-A were evaluated using the MTT assay against PC3, DU145, LNCaP, and RAW 264.7 cells. Cells (2000 cells/well for PC3, and DU145 cells; 10000 cells/well for LNCaP and RAW 264.7) were seeded on a 96-well plate in 100 μL of desired medium and incubated for 24 h. The cells were treated with different constructs at varying concentrations and incubated for 72 h at 37° C. except for RAW 264.7 macrophages. An incubation time period of 24 h was used for macrophages. The cells were then treated with 20 μL of MTT (5 mg/mL in PBS) for 5 h. The medium was removed, the cells were lysed with 100 μL of DMSO, and the absorbance of the purple formazan was recorded at 550 nm using a Bio-Tek Synergy HT microplate reader. Each well was performed in triplicate. […] The IC50 values were reported at +95% confidence intervals.

A further data set has as its system IL-10. Kind of data set: ELISA of IL-10 in LPS-stimulated RAW 264.7 macrophages. The data set is classed as cell-based, mouse. Particulars: preventive: pretreatment 10 μM 6 h, then LPS 12 h. The source says: Chronic inflammation can be important for progression of human cancers, including PCa. Pro-inflammatory cytokines, TNF-α and interleukin (IL)-6, can be important for proliferation, survival, metastasis, and escape from immune surveillance of cancers. Chronic inflammation by activation of toll like receptors (TLRs) on cancer cells creates a tumor micro-environment which impairs the anti-tumor function of the immune system to allow to develop and survive. The cytokines TNF-α and IL-6 are potent activators of NF-κB, a key modulator of inflammation-induced carcinogenesis. Enhanced TNF-α secretion mediates cisplatin nephrotoxicity. The anti-inflammatory cytokine, IL-10 inhibits inflammatory and cytotoxic pathways in cisplatin-induced acute renal injury. […] First, we evaluated the effects of Platin-A, cisplatin, a combination of cisplatin and aspirin, and aspirin on pro-inflammatory cytokines IL-6, TNF-α, and anti-inflammatory IL-10 production in LPS-stimulated RAW 264.7 macrophages. […] To exclude the possibility that the decrease in the cytokines levels was simply due to the cytotoxicity of Platin-A, cell viability was evaluated. […]
RAW 264.7 cells were plated at a concentration of 10,000 cells/mL in 96 plates and allowed to grow overnight. […] The absorbance was recorded at 450 nm using a BioTek Synergy HT well plate reader.

A further data set relates to TNF-α. Kind of data set: ELISA of TNF-α in LPS-stimulated RAW 264.7 macrophages. The data set is classed as cell-based, mouse. On the technique in general: An ELISA detects its analyte on a solid surface through an enzyme-linked reagent.
Data set [1] concerns COX-2 expression in PC3 cells. Kind of data set: Immunofluorescence analysis of COX-2 expression in PC3 cells. Type of data set: cell-based, Human. Particulars: TNF-α 20 ng/mL 2 h, then 1 μM test article 2 h.
Experimental: Human TNF-α (20 ng/mL) was then added to the cells and incubated for 2 h. […] The cells were then fixed with a 4% paraformaldehyde solution for 30 min at room temperature. […] The coverslips were washed 3 times with H2O and 3 times with PBS. […] After 5 washes with blocking buffer, the cells were mounted on microscope slides with mounting media (20 mM Tris of pH 8.0, 0.5% N-propyl gallate, and 70% glycerol). Images were collected with 500 ms exposure using DAPI and FITC filters. Relative fluorescence units (RFUs) were also analyzed by a plate reader at an excitation wavelength of 488 nm and an emission of 519 nm.

Consider one compound from US20170190726A9, “PRODRUG FOR RELEASE OF CISPLATIN AND CYCLOOXYGENASE INHIBITOR” (priority 2013, published 2017).

Experimental for TNF-α: RAW 264.7 cells were plated at a concentration of 10,000 cells/mL in 96 plates and allowed to grow overnight. For preventative anti-inflammatory treatment, Platin-A (10 μM), aspirin (10 μM), cisplatin (10 μM) and an equimolar ratio of cisplatin and aspirin (10 μM each) was incubated with the RAW cells for 6 h. Lipopolysaccharide (LPS) (100 ng/mL) was added and the cells were further incubated for 12 h. For therapeutic anti-inflammatory treatment, LPS (100 ng/mL) was added to the RAW cells and incubated for 6 h. Platin-A (10 μM), aspirin (10 μM), cisplatin (10 μM) and an equimolar ratio of cisplatin and aspirin (10 μM each) was then added to the cells and incubated for 12 h. ELISA was performed on the supernatants against the cytokines interleukin (IL)-6, IL-10, and TNF-α. Briefly, antibody coated plates were blocked with 10% FBS in PBS for 1 h at room temperature followed by 3 washes. RAW cell supernatants were incubated on the plates for 2 h at room temperature. This was immediately followed by washings and sequential incubations with the cytokine-biotin conjugate and streptavidin working solution. Finally, the substrate reagent containing 3,3′,5,5′-tetramethylbenzidine (100 μL) was added to each well, incubated for 15 min, the reaction was stopped by adding 50 μL H2SO4 (0.1 M). The absorbance was recorded at 450 nm using a BioTek Synergy HT well plate reader.

`CC(=O)Oc1ccccc1C(=O)[O][Pt]([NH2])([NH2])([OH])([Cl])[Cl]` [Platin-A]: the cell viability entry in the data set with RAW 264.7 macrophages is “did not affect cell viability”. The “level of IL-10” value in the data set with IL-10 was “enhanced level of IL-10”. In addition, in the data set on TNF-α (preventive: pretreatment 10 μM 6 h, then LPS 12 h), the “LPS-induced TNF-α production” value is “significantly inhibited”. Moreover, the “levels of TNF-α” value in the data set with TNF-α (therapeutic: LPS activated macrophages then 10 μM for 12 h) is listed as “significantly reduced”. Besides, in data set [1], the “COX-2 expression in TNF-α stimulated PC3 cells” value is recorded as “levels were reduced”.
